Patent publication US8658644B2, “Pyridazine derivatives, processes for their preparation and their use as fungicides” (Syngenta Crop Protection, LLC, priority 2011, dated 2014)

How the values were obtained:
[1] = tested on: Alternaria Solani; assay: Alternaria solani / tomato / preventative; type: in vivo; conditions: tomato plants cv. Roter Gnom, inoculated two days after application, leaf area covered by disease 5 to 7 days after application, read-out: inhibited fungal infestation
Description: (§1) Alternaria Solani/Tomato/Preventative (Action Against Alternaria on Tomato) 4-week old tomato plants cv. Roter Gnom were treated with the formulated test compound in a spray chamber. The test plants were inoculated by spraying them with a spore suspension two days after application. The inoculated test plants were incubated at 22/18° C. (day/night) and 95% rh in a greenhouse and the percentage leaf area covered by disease was assessed when an appropriate level of disease appears on untreated check plants (5 to 7 days after application).

[2] = tested on: Mycosphaerella graminicola (Septoria tritici); assay: Mycosphaerella graminicola (Septoria tritici) / wheat / curative; type: in vivo; conditions: Zymoseptoria tritici, wheat plants cv. Riband, treated 5 days after inoculation, leaf area covered by disease 11 to 14 days after application, read-out: inhibited fungal infestation
Description: Mycosphaerella graminicola (Septoria tritici)/Wheat/Curative (Action Against Septoria Leaf Spot on Wheat) 2-week old wheat plants cv. Riband are inoculated by spraying them with a spore suspension. After an incubation period of 2 days at 22° C./21° C. (day/night) and 95% rh, the test plants are kept at 22° C./21° C. (day/night) and 70% rh in a climate chamber. The inoculated test plants are treated with the formulated test compound in a spray chamber 5 days after inoculation. The percentage leaf area covered by disease is assessed when an appropriate level of disease appears on untreated check plants (11 to 14 days after application).

[3] = tested on: Pyrenophora teres (Helminthosporium teres); assay: Pyrenophora teres (Helminthosporium teres) / barley / preventative; type: in vivo; conditions: barley plants cv. Regina, inoculated 2 days after application, leaf area covered by disease 5 to 7 days after application, read-out: inhibited fungal infestation
Description: Pyrenophora teres (Helminthosporium teres)/Barley/Preventative (Action Against Net Blotch on Barley) 1-week old barley plants cv. Regina were treated with the formulated test compound in a spray chamber. The test plants were inoculated by spraying them with a spore suspension 2 days after application. The inoculated test plants were incubated at 20° C. and 95% rh and the percentage leaf area covered by disease was assessed when an appropriate level of disease appears on untreated check plants (5 to 7 days after application).

[4] = tested on: Erysiphe necator (Uncinula necator); assay: Erysiphe necator (Uncinula necator) / grape / preventative; type: in vivo; conditions: grape seedlings cv. Gutedel, inoculated 1 day after application, leaf area covered by disease 7 to 9 days after application, read-out: inhibited fungal infestation
Description: Erysiphe necator (Uncinula necator)/Grape/Preventative (Action Against Powdery Mildew on Grape) 5-week old grape seedlings cv. Gutedel were treated with the formulated test compound in a spray chamber. The test plants are inoculated by shaking plants infected with grape powdery mildew above them 1 day after application. The inoculated test plants were incubated at 24/22° C. (day/night) and 70% rh under a light regime of 14/10 h (light/dark) and the percentage leaf area covered by disease was assessed when an appropriate level of disease appears on untreated check plants (7 to 9 days after application).

[5] = tested on: Puccinia recondita; assay: Puccinia recondita / wheat / preventative; type: in vivo; conditions: wheat plants cv. Arina, inoculated one day after application, leaf area covered by disease 12 to 14 days after application, read-out: inhibited fungal infestation
Description: Puccinia recondita/Wheat/Preventative (Action Against Brown Rust on Wheat) 2-week old wheat plants cv. Arina were treated with the formulated test compound in a spray chamber. The test plants were inoculated by spraying them with a spore suspension one day after application. After an incubation period of 1 day at 20° C. and 95% rh, the test plants were kept at 20° C./18° C. (day/night) and 60% rh in a greenhouse. The percentage leaf area covered by disease was assessed when an appropriate level of disease appears on untreated check plants (12 to 14 days after application).

[6] = tested on: Botryotinia fuckeliana (Botrytis cinerea); assay: Botryotinia fuckeliana (Botrytis cinerea) / tomato / preventative; type: in vivo; conditions: tomato plants cv. Roter Gnom, inoculated two days after application, leaf area covered by disease 5 to 6 days after application, read-out: inhibited fungal infestation
Description: as §1, with “Botryotinia fuckeliana (Botrytis cinerea)/Tomato/Preventative” for “Alternaria Solani/Tomato/Preventative”, “Botrytis” for “Alternaria”, “20°” for “22/18°”, “C.” for “C. (day/night)”, “is” for “was”, “6” for “7”

[7] = tested on: Magnaporthe grisea (Pyricularia oryzae); assay: whole plant or invertebrate; type: in vivo; conditions: read-out: inhibited fungal infestation
[8] = tested on: Mycosphaerella graminicola (Septoria tritici); assay: Mycosphaerella graminicola (Septoria tritici) / wheat / preventive; type: in vivo; conditions: Zymoseptoria tritici, wheat plants cv. Riband, inoculated one day after application, leaf area covered by disease 16 to 19 days after application, read-out: inhibited fungal infestation
Description: Mycosphaerella graminicola (Septoria tritici)/Wheat/Preventive (Action Against Septoria Leaf Spot on Wheat) 2-week old wheat plants cv. Riband were treated with the formulated test compound in a spray chamber. The test plants were inoculated by spraying a spore suspension on them one day after application. After an incubation period of 1 day at 22° C./21° C. (day/night) and 95% rh, the test plants were kept at 22° C./21° C. (day/night) and 70% rh in a greenhouse. The percentage leaf area covered by disease is assessed when an appropriate level of disease appears on untreated check plants (16 to 19 days after application).

`C#Cc1ccc(-c2c(C)n[nH]c(=O)c2-c2c(F)cc(F)cc2F)cc1` [Compound 1, 5-(4-ethynylphenyl)-6-methyl-4-(2,4,6-trifluorophenyl)-2H-pyridazin-3-one] gave a melting point of 252 to 254 °C.
Molecule `C#Cc1ccc(-c2c(C)nnc(Cl)c2-c2c(F)cc(F)cc2F)cc1` [Compound 2, 3-chloro-5-(4-ethynylphenyl)-6-methyl-4-(2,4,6-trifluorophenyl)pyridazine] has an inhibition at 200 ppm [1] of at least 80%, an inhibition at 200 ppm [2] of at least 80% and an inhibition at 200 ppm [3] of at least 80%. It also gave an inhibition at 200 ppm [4] of at least 80%, a melting point of 174 to 175 °C and an inhibition at 200 ppm [5] of at least 80%. It also gave an inhibition at 200 ppm [6] of at least 80%, an inhibition at 200 ppm [7] of at least 80% and an inhibition at 200 ppm [8] of at least 80%.
`C#Cc1ccc(-c2c(C)nnc(OC)c2-c2c(F)cc(OC)cc2F)cc1` [Compound 4, 4-(2,6-difluoro-4-methoxyphenyl)-5-(4-ethynylphenyl)-3-methoxy-6-methylpyridazine] showed an inhibition at 200 ppm [1] of at least 80%, an inhibition at 200 ppm [2] of at least 80% and an inhibition at 200 ppm [3] of at least 80%. For the same molecule, the melting point was 192 to 193 °C, the inhibition at 200 ppm [6] was at least 80% and the inhibition at 200 ppm [7] was at least 80%. It also gave an inhibition at 200 ppm [8] of at least 80%.
